# In patent US20240270762A1, “PENICILLIN-BINDING PROTEIN INHIBITORS” (priority 2021, published 2024):
# Experiments:
# [1] = molecular target: T1, PBP3 from Pseudomonas aeruginosa (PAO1) (Pseudomonas aeruginosa, UniProt G3XD46); assay: Bocillin-FL fluorescence polarization competition binding, P. aeruginosa PBP3; conditions: Binding affinity to P. aeruginosa PBP3; fluorescence polarization competition binding assay using Bocillin-FL; read-out: P. aeruginosa PBP3 Potency
# T1 construct: made in house
# Method in brief: (§1)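 Purified PBP was preincubated with inhibitor (E. coli PBP3 1.5 μM, 30 min; P. aeruginosa PBP3 0.75 μM, A. baumannii PBP3 0.2 μM and PBP1a 1 μM, 15 min), then Bocillin-FL (0.1 μM; 0.05 μM for PBP1a) added and FP read up to 60 min. EC50 = 50% loss of bound probe.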
# [2] = molecular target: T2, PBP3 from Escherichia coli (K-12) (Escherichia coli, UniProt P0AD68); assay: Bocillin-FL fluorescence polarization competition binding, E. coli PBP3
# T2 construct: made in house
# Method in brief: as §1
# [3] = system: N. gonorrhoeae ATCC 49226; assay: Liquid broth MIC in Fastidious broth; conditions: Neisseria gonorrhoeae, ATCC49226, read-out: Minimum Inhibitory Concentration (MIC), N. gonorrhoeae ATCC 49226
# Method: Additional antibacterial testing of the series was performed in 8 reference strains of N. gonorrhoeae (ATCC 49226, FA1090, MS 11, WHO G, WHO L, WHO M, WHO K, WHO X, WHO Z, WHO Q, CDC-0197). ATCC 49226, FA1090, MS11, WHO G, WHO L, and WHO M produce wild type or wild-type like PBP2. WHO K, WHO X, WHO Z, WHO Q, and CDC-0197 produce mosaic PBP2. Liquid broth-based assays were used for antibacterial testing of PBP inhibitors in Neisseria gonorrhoeae. Briefly, cryo-preserved bacterial cultures of clinical strains were streaked for isolation on Chocolate Agar (72 g/L (2×) GC Agar Base (BD #228950) and 2% (2×) Hemoglobin was autoclaved at 121° C. for 20 minutes to sterilize. Once cooled to ˜50° C. the 2×GC Agar Base and 2× Hemoglobin solutions are combined and 1% IsoVitaleX Enrichment (BD #211876) was added to the solution). Strains were incubated at 36° C. and 5% CO2 to allow growth of colonies, 24 hours before inoculum preparation. 2-fold serial dilutions of test compounds were conducted in a 96 well plate with a final volume of 75 μL per well at 2-fold the final desired concentration in Fastidious broth (Remel #R07664). For preparation of assay inoculum, a direct suspension was prepared by aseptically swabbing 10-15 colonies from agar plates into culture tubes containing 2 mL of fresh sterile saline. After the dilution plates were set up, direct suspensions were then diluted in a cuvette containing sterile saline and the optical density was measured at 600 nm. Inocula were diluted such that 75 μL of this culture in Fastidious broth results in a starting bacterial concentration of 5×10^5 CFU/mL when added to the dilution plates. The plates were incubated for ˜24 hours at 36° C. and 5% CO2.
# [4] = system: N. gonorrhoeae WHO Q; assay: Liquid broth MIC in Fastidious broth; conditions: Neisseria gonorrhoeae, read-out: Minimum Inhibitory Concentration (MIC), N. gonorrhoeae WHO Q
# [5] = system: P. aeruginosa (ΔmexAB-oprM); assay: Broth microdilution MIC in CAMHB; assay type: cell-based; conditions: Pseudomonas aeruginosa; read-out: MIC P. aeruginosa ΔmexAB-oprM
# [6] = system: N. gonorrhoeae CDC-0197; assay: Liquid broth MIC in Fastidious broth; conditions: Neisseria gonorrhoeae, CDC0197, read-out: Minimum Inhibitory Concentration (MIC), N. gonorrhoeae CDC-0197
# [7] = system: E. coli AG100A; assay: Broth microdilution MIC in CAMHB; assay type: cell-based; conditions: Escherichia coli, read-out: MIC E. coli AG100A
# [8] = system: E. coli ATCC 25922; assay: microbe, parasite or virus in culture; assay type: cell-based; conditions: Escherichia coli, ATCC25922, read-out: MIC E. coli 25922
# [9] = system: N. gonorrhoeae WHO X; assay: Liquid broth MIC in Fastidious broth; conditions: Neisseria gonorrhoeae, read-out: Minimum Inhibitory Concentration (MIC), N. gonorrhoeae WHO X
# [10] = system: K. pneumoniae 848844; assay: microbe, parasite or virus in culture; assay type: cell-based; conditions: Klebsiella pneumoniae, 848844, read-out: MIC K. pneumoniae 848844
# [11] = system: A. baumannii ATCC 19606; assay: microbe, parasite or virus in culture; assay type: cell-based; conditions: Acinetobacter baumannii, ATCC19606, read-out: MIC, A. baumannii ATCC 19606
# [12] = system: N. gonorrhoeae WHO M; assay: Liquid broth MIC in Fastidious broth; conditions: Neisseria gonorrhoeae, read-out: Minimum Inhibitory Concentration (MIC), N. gonorrhoeae WHO M
# T2 sequence (P0AD68 1-577): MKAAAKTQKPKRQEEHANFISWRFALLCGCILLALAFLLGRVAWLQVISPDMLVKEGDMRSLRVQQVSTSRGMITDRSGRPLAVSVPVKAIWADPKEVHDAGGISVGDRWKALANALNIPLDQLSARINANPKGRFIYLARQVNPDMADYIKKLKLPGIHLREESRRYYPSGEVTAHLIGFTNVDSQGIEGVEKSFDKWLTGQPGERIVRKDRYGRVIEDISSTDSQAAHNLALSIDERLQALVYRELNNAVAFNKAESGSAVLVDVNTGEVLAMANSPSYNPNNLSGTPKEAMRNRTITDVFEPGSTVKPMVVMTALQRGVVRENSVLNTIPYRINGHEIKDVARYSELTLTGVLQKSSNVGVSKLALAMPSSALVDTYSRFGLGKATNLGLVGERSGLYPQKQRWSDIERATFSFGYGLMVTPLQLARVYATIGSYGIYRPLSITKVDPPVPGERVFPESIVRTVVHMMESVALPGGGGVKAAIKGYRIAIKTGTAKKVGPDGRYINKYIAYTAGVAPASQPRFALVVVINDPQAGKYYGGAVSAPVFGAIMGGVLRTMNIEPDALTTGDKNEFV
# T1 sequence (G3XD46 whole entry): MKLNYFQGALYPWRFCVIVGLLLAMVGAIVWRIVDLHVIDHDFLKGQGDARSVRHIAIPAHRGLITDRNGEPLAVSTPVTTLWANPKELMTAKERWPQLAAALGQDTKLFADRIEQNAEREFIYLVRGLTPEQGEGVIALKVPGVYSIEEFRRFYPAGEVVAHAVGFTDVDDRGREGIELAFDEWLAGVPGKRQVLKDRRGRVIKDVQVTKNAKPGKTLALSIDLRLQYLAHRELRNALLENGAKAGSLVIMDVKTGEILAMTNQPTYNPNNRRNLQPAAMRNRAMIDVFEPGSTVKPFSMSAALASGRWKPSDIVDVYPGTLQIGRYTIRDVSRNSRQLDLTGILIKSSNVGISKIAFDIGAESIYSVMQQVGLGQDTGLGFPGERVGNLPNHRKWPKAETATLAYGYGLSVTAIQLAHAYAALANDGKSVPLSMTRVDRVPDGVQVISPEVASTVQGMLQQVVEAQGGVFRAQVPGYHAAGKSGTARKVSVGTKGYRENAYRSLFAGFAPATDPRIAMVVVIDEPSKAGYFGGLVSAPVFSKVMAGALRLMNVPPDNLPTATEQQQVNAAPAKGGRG
SMILES,IC50 [1],EC50 [2],MIC [3],MIC [4],MIC [5],MIC [6],MIC [7],MIC [8],MIC [9],MIC [10],MIC [11],MIC [12]
"CS(=O)(=O)N1CCN(C(=O)NC(C(=O)N[C@H]2Cc3cccc(C(=O)O)c3OB2O)c2ccc(P(=O)(O)O)c(O)c2)C1=O (stereo partly drawn) [Example 17, (3R)-2-hydroxy-3-(2-(3-hydroxy-4-phosphonophenyl)-2-(3-(methylsulfonyl)-2-oxoimidazolidine-1-carboxamido)acetamido)-3,4-dihydro-2H-benzo[e][1,2]oxaborinine-8-carboxylic acid]",< 10 µM,< 10 µM,< 1 µg/mL,< 1 µg/mL,8 to 16 µg/mL,< 1 µg/mL,8 to 16 µg/mL,32 to 64 µg/mL,< 1 µg/mL,> 128 µg/mL,2 to 4 µg/mL,< 1 µg/mL
"CCN1CCN(C(=O)NC(C(=O)N[C@H]2Cc3cccc(C(=O)O)c3OB2O)c2ccc(CP(=O)(O)O)cc2)C(=O)C1=O (stereo partly drawn) [Example 20, (3R)-3-(2-(4-ethyl-2,3-dioxopiperazine-1-carboxamido)-2-(4-(phosphonomethyl)phenyl)acetamido)-2-hydroxy-3,4-dihydro-2H-benzo[e][1,2]oxaborinine-8-carboxylic acid]",< 10 µM,< 10 µM,< 1 µg/mL,< 1 µg/mL,8 to 16 µg/mL,< 1 µg/mL,8 to 16 µg/mL,8 to 16 µg/mL,1 to 2 µg/mL,> 128 µg/mL,32 to 64 µg/mL,< 1 µg/mL
"CCN1CCN(C(=O)NC(C(=O)N[C@H]2Cc3cccc(C(=O)O)c3OB2O)c2ccc(P(=O)(O)O)c(O)c2)C(=O)C1=O (stereo partly drawn) [Example 21, (3R)-3-(2-(4-ethyl-2,3-dioxopiperazine-1-carboxamido)-2-(3-hydroxy-4-phosphonophenyl)acetamido)-2-hydroxy-3,4-dihydro-2H-benzo[e][1,2]oxaborinine-8-carboxylic acid]",< 10 µM,< 10 µM,< 1 µg/mL,< 1 µg/mL,32 to 64 µg/mL,< 1 µg/mL,8 to 16 µg/mL,8 to 16 µg/mL,< 1 µg/mL,> 128 µg/mL,2 to 4 µg/mL,< 1 µg/mL
"CCN1CCN(C(=O)NC(C(=O)N[C@H]2Cc3cccc(C(=O)O)c3OB2O)c2cccc(CP(=O)(O)O)c2)C(=O)C1=O (stereo partly drawn) [Example 22, (3R)-3-(2-(4-ethyl-2,3-dioxopiperazine-1-carboxamido)-2-(3-(phosphonomethyl)phenyl)acetamido)-2-hydroxy-3,4-dihydro-2H-benzo[e][1,2]oxaborinine-8-carboxylic acid]",< 10 µM,< 10 µM,1 to 2 µg/mL,1 to 2 µg/mL,8 to 16 µg/mL,1 to 2 µg/mL,8 to 16 µg/mL,32 to 64 µg/mL,4 to 8 µg/mL,> 128 µg/mL,32 to 64 µg/mL,< 1 µg/mL
"CCN1CCN(C(=O)NC(C(=O)N[C@H]2Cc3cccc(C(=O)O)c3OB2O)c2c(F)cc(P(=O)(O)O)cc2F)C(=O)C1=O (stereo partly drawn) [Example 25, (3R)-3-(2-(2,6-difluoro-4-phosphonophenyl)-2-(4-ethyl-2,3-dioxopiperazine-1-carboxamido)acetamido)-2-hydroxy-3,4-dihydro-2H-benzo[e][1,2]oxaborinine-8-carboxylic acid]",< 10 µM,< 10 µM,< 1 µg/mL,1 to 2 µg/mL,32 to 64 µg/mL,< 1 µg/mL,32 to 64 µg/mL,> 128 µg/mL,4 to 8 µg/mL,> 128 µg/mL,> 128 µg/mL,< 1 µg/mL
"CC(=O)NC(C(=O)N[C@H]1Cc2cccc(C(=O)O)c2OB1O)c1ccc(P(=O)(O)O)cc1 (stereo partly drawn) [Example 26, (3R)-3-(2-acetamido-2-(4-phosphonophenyl)acetamido)-2-hydroxy-3,4-dihydro-2H-benzo[e][1,2]oxaborinine-8-carboxylic acid]",50 to 250 µM,50 to 250 µM,16 to 32 µg/mL,16 to 32 µg/mL,> 128 µg/mL,16 to 32 µg/mL,32 to 64 µg/mL,> 128 µg/mL,16 to 32 µg/mL,> 128 µg/mL,> 128 µg/mL,4 to 8 µg/mL
"CCC(=O)NC(C(=O)N[C@H]1Cc2cccc(C(=O)O)c2OB1O)c1ccc(P(=O)(O)O)cc1 (stereo partly drawn) [Example 27, (3R)-2-hydroxy-3-(2-(4-phosphonophenyl)-2-propionamidoacetamido)-3,4-dihydro-2H-benzo[e][1,2]oxaborinine-8-carboxylic acid]",10 to 50 µM,50 to 250 µM,16 to 32 µg/mL,16 to 32 µg/mL,> 128 µg/mL,16 to 32 µg/mL,> 128 µg/mL,> 128 µg/mL,16 to 32 µg/mL,> 128 µg/mL,> 128 µg/mL,4 to 8 µg/mL
"CC(C)C(=O)NC(C(=O)N[C@H]1Cc2cccc(C(=O)O)c2OB1O)c1ccc(P(=O)(O)O)cc1 (stereo partly drawn) [Example 28, (3R)-2-hydroxy-3-(2-isobutyramido-2-(4-phosphonophenyl)acetamido)-3,4-dihydro-2H-benzo[e][1,2]oxaborinine-8-carboxylic acid]",10 to 50 µM,50 to 250 µM,16 to 32 µg/mL,16 to 32 µg/mL,> 128 µg/mL,16 to 32 µg/mL,> 128 µg/mL,> 128 µg/mL,16 to 32 µg/mL,> 128 µg/mL,> 128 µg/mL,4 to 8 µg/mL
"CC(C)(C)C(=O)NC(C(=O)N[C@H]1Cc2cccc(C(=O)O)c2OB1O)c1ccc(P(=O)(O)O)cc1 (stereo partly drawn) [Example 29, (3R)-2-hydroxy-3-(2-(4-phosphonophenyl)-2-pivalamidoacetamido)-3,4-dihydro-2H-benzo[e][1,2]oxaborinine-8-carboxylic acid]",10 to 50 µM,50 to 250 µM,16 to 32 µg/mL,16 to 32 µg/mL,8 to 16 µg/mL,16 to 32 µg/mL,> 128 µg/mL,> 128 µg/mL,16 to 32 µg/mL,> 128 µg/mL,32 to 64 µg/mL,4 to 8 µg/mL
"O=C(O)c1cccc2c1OB(O)[C@@H](NC(=O)C(NC(=O)C1CC1)c1ccc(P(=O)(O)O)cc1)C2 (stereo partly drawn) [Example 30, (3R)-3-(2-(cyclopropanecarboxamido)-2-(4-phosphonophenyl)acetamido)-2-hydroxy-3,4-dihydro-2H-benzo[e][1,2]oxaborinine-8-carboxylic acid]",50 to 250 µM,50 to 250 µM,16 to 32 µg/mL,16 to 32 µg/mL,> 128 µg/mL,16 to 32 µg/mL,> 128 µg/mL,> 128 µg/mL,16 to 32 µg/mL,> 128 µg/mL,> 128 µg/mL,4 to 8 µg/mL
